SMILES strings stand for the structures.

The target in the first assay is T1, UDP-3-O-acyl-N-acetylglucosamine deacetylase (Pseudomonas aeruginosa (strain ATCC 15692 / PAO1 / 1C / PRS 101 / LMG12228), UniProt P47205).
T1 sequence (P47205 whole entry): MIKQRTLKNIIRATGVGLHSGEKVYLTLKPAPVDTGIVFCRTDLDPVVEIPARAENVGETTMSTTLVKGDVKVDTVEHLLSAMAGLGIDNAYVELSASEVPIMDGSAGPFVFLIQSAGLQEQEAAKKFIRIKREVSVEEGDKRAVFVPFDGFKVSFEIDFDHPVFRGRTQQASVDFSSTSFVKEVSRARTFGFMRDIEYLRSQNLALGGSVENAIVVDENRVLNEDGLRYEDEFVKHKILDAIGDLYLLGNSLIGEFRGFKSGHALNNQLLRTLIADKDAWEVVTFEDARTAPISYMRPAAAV
Kind of assay: Displacement of (S)-N-(2-(N-(3-biphenyl-4-ylcarboxamido-4-(hydroxyamino)-4-oxobutyl)sulfamoyl)ethyl)-3',6'-dihydroxy-3-oxo-3H-spiro[isobenzofuran-1,9'-xanthene]-5-carboxamide fluorescent probe from histidine tagged Pseudomonas aeruginosa LpxC (1-303) expressed in Escherichia coli BL21 (DE3) preincubated for 30 mins followed by addition of fluorscein probe measured after 2 hrs by fluorescence ….
`CS(=O)(=O)CC[C@@H](N)C(=O)Nc1cccc(OC(F)(F)F)c1` displayed an IC50 of 8.97 µM.
Same read-out and setting: the same measure for `CC(O)c1nccn1CCCc1ccc(-c2ccccc2)cc1` (racemic): 0.0269 µM.
Still for that read-out and setting: the same measure for `CS(=O)(=O)NC[C@@H](N)C(=O)Nc1cccc(OC(F)(F)F)c1`: 37.9 µM; for `CC(O)c1nccn1Cc1ccc(-c2ccccc2)cc1` (racemic): 0.546 µM; for `OCc1nccn1CCCc1ccc(Cl)cc1`: 36.7 µM.
Still for that read-out and setting: the same measure for `CC(O)c1nccn1Cc1ccc(Cl)cc1` (racemic): 39.9 µM.
In turn, `NCC(=O)Nc1cccc(OC(F)(F)F)c1` gave an IC50 of 54.9 µM.
With `OC(COc1ccccc1)Cn1ccnc1` (racemic), the IC50 was > 2000 µM.
Turning to `CC(O)c1nccn1CCc1ccc(C#Cc2ccccc2)cc1` (racemic), the IC50 came out at 1.76 µM.
As for `NC[C@@H](N)C(=O)Nc1cccc(OC(F)(F)F)c1`, the IC50 amounted to 40.1 µM.
Same read-out and setting: the same measure for `CC(O)c1nccn1CCCc1ccc(Cl)cc1` (racemic): 0.809 µM.
Still for that read-out and setting: the same measure for `CC(O)c1nccn1CCc1ccc(-c2ccccc2)cc1` (racemic): 6.48 µM.
Same read-out and setting: the same measure for `Clc1ccc(OCCCn2ccnc2)cc1`: 118 µM.
Compound `CC(O)c1nccn1CCc1ccc(Cl)cc1` (racemic) came in with an IC50 of 67.8 µM.
For `Clc1ccc(CCCCn2ccnc2)cc1`, the IC50 amounted to 43.2 µM.

The next assay has as its target T1, UDP-3-O-acyl-N-acetylglucosamine deacetylase. Kind of assay: Inhibition of histidine-tagged Pseudomonas aeruginosa LpxC (1-303) expressed in Escherichia coli BL21 (DE3) using UDP-3-O-(R-3-hydroxydecanoyl)-N-acetylglucosamine as substrate measured after 60 mins by Fluorescence plate reader analysis.
Compound `CC(O)c1nccn1CCCc1ccc(-c2ccccc2)cc1` (racemic) registered an IC50 of 0.133 µM.
Same read-out and setting: the figure for `CC(O)c1nccn1Cc1ccc(-c2ccccc2)cc1` (racemic) is 3.94 µM.
On the same count and under the same terms, the same measure for `OCc1nccn1CCCc1ccc(Cl)cc1`: 108 µM; for `CC(O)c1nccn1Cc1ccc(Cl)cc1` (racemic): 214 µM.
The same measure, in the same setting: the same measure for `OC(COc1ccccc1)Cn1ccnc1` (racemic): 1130 µM.
With `CC(O)c1nccn1CCc1ccc(C#Cc2ccccc2)cc1` (racemic), the IC50 was 2.4 µM.
Turning to `CC(O)c1nccn1CCCc1ccc(Cl)cc1` (racemic), the midpoint of inhibition, the IC50, lay at 10.4 µM.
The same measure, in the same setting: the figure for `CC(O)c1nccn1CCc1ccc(-c2ccccc2)cc1` (racemic) is 10.4 µM; for `Clc1ccc(OCCCn2ccnc2)cc1` it is 144 µM; for `CC(O)c1nccn1CCc1ccc(Cl)cc1` (racemic) it is 261 µM.
As to `Clc1ccc(CCCCn2ccnc2)cc1`, 60.4 µM corresponded to half-maximal inhibition (IC50).

Another assay shares this target. Kind of assay: Inhibition of histidine-tagged Pseudomonas aeruginosa LpxC (1-303) expressed in Escherichia coli BL21 (DE3) using UDP-3-O-(R-3-hydroxydecanoyl)-N-acetylglucosamine as substrate measured after 60 mins by LC-MS/MS analysis.
Compound `N[C@H](CO)C(=O)N1CCC(Cc2ccccc2)CC1` had an IC50 of 24.9 µM.
For `N[C@H](CO)C(=O)N1CCC(Cc2ccc(C#Cc3ccccc3)cc2)CC1`, the IC50 is 0.034 µM.
For `CS(=O)(=O)CC[C@@H](N)C(=O)Nc1cccc(OC(F)(F)F)c1`, the IC50 worked out at 10 µM.
The compound `CS(=O)(=O)NC[C@@H](N)C(=O)Nc1cccc(OC(F)(F)F)c1` yielded an IC50 of 43.8 µM.
`NCC(=O)Nc1cccc(OC(F)(F)F)c1`: half-maximal inhibition (IC50) required 41.9 µM.
On the same count and under the same terms, the same measure for `NC[C@@H](N)C(=O)Nc1cccc(OC(F)(F)F)c1`: 36.7 µM; for `N[C@H](CO)C(=O)N1CCC(Cc2ccc(CCc3ccccc3)cc2)CC1`: 4.53 µM; for `N[C@H](CO)C(=O)N1CCC(Cc2ccc(-c3ccccc3)cc2)CC1`: 0.66 µM.

Another assay deals with Stromelysin-1 (Homo sapiens, UniProt P08254). Description: Inhibition of human MMP-3 by fluorometric assay.
Sequence of Stromelysin-1 (P08254 whole entry): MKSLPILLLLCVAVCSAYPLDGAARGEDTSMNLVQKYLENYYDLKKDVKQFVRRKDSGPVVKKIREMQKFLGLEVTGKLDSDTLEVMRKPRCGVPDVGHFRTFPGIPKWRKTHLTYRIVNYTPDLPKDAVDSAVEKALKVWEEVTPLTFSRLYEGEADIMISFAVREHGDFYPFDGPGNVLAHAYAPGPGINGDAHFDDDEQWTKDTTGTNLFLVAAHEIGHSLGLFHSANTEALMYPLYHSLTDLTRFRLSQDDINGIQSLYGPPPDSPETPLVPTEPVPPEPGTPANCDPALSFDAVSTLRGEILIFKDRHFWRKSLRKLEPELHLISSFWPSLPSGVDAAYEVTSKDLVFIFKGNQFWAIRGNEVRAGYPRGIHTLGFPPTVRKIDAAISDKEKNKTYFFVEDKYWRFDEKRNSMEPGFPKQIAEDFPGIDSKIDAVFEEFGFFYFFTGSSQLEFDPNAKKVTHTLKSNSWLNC
Turning to `CNC(=O)[C@H](Cc1c[nH]c2ccccc12)NC(=O)[C@@H](CC(=O)NO)CC(C)C` [ILOMASTAT], inhibition was half-maximal at 0.015 µM (IC50).

By IC50 is commonly meant the point on the concentration scale where inhibition reaches its midpoint.

Source of the values: ChEMBL document CHEMBL4673300, “Fragment-Based Discovery of Novel Non-Hydroxamate LpxC Inhibitors with Antibacterial Activity” (J Med Chem, 2020).
